Results from publication PMC9317966, “Structure-function analysis of the AMPK activator SC4 and identification of a potent pan AMPK activator” (Biochemical Journal, 2022).

Tests used:
Assay type in all cases: biochemical
human GST-AMPK α1β1γ1 = biological target: T1, human GST-AMPK α1β1γ1 (Homo sapiens, UniProt Q13131+Q9Y478); test: Radiolabel SAMS kinase assay, GST-AMPK from HEK293T/17 cells immobilised on glutathione-Sepharose; conditions: for Max. fold activation: immobilised α1β1γ1; for EC50: immobilised α1β1γ1, 0–30 µM activator
T1 construct: triply transfected with full-length AMPK α1 or α2 (NH2-terminal GST fusion, pDEST27 vector); full-length AMPK α1 or α2 (NH2-terminal GST fusion, pDEST27 vector), β1 or β2 (COOH-terminal FLAG fusion, pcDNA3.1 vector); FLAG (C); made in house; host or cells: HEK293T/17 cells, transient triple transfection
Text: We generated a series of compounds to investigate whether modification of the SC4 2-hydroxybiphenyl LHS fragment affects isoform selectivity, some of which (MSG008-MSG011) are presented in Table 1. We also synthesised compound MSG012 (example I-3-54 [32]), which was reported to activate α2β2γ1 with ∼100-fold greater potency compared with α1β1γ1. MSG012 differs from SC4 by substitution of the 2-hydroxyphenyl LHS fragment with 3-cyclohexen-4-yl-1-carboxylic acid, and 2-methylbenzoic acid RHS fragment with 1-hydroxy-N,N-dimethylcyclohexan-4-yl-1-carboxamide. Our initial screen involved measuring the activity of recombinant human GST-AMPK complexes expressed in HEK293T/17 cells and immobilised on glutathione-Sepharose (Supplementary Figure S1). Enzyme activity was measured by radiolabelling the synthetic SAMS peptide substrate in the absence or presence of 1 µM compound. Consistent with our previous characterisation, SC4 activated α1β1γ1, α2β1γ1 and α2β2γ1 >2.3-fold, and weakly activated α1β2γ1 1.3-fold (Figure 1A). […] The γ isoform had little influence on AMPK activation by MSG011 as most γ2 and γ3 complexes were activated >2.2-fold at 1 µM, with α1β2γ2 being the only exception (1.6-fold activation). […] Accordingly, MSG010, MSG011 and MSG012 can be classified as pan AMPK activators.
(§1) Adherent HEK293T/17 cells at ∼50% confluency were triply transfected with full-length AMPK α1 or α2 (NH2-terminal GST fusion, pDEST27 vector), β1 or β2 (COOH-terminal FLAG fusion, pcDNA3.1 vector), and γ1, γ2 or γ3 (NH2-terminal HA fusion, pMT2 vector) in the presence of FuGENE HD transfection reagent (Promega) as per the manufacturers protocol. Cells were harvested 48 hours post-transfection by first gently washing in ice cold phosphate buffered saline (PBS; Sigma–Aldrich), then scraping in ice cold lysis buffer (50 mM TRIS pH 7.5, 150 mM NaCl, 10% (v/v) glycerol, 50 mM NaF, 5 mM sodium pyrophosphate, 1% (v/v) Triton X-100, cOmplete protease inhibitor cocktail). Lysates were clarified by centrifugation (16 000g, 3 min, 4°C), flash frozen in liquid N2 and stored at −80°C until analysis. For radioactive kinase assays, AMPK was immobilised on glutathione Sepharose 4B resin (GE Healthcare) by incubation with lysates for 1.5 h at 4°C. Following centrifugation (1000g, 3 min, 4°C), the resin was washed twice in purification buffer (50 mM HEPES pH 7.4, 150 mM NaCl, 10% (v/v) glycerol, 0.02% (v/v) Tween-20), once in 50 mM HEPES pH 7.4 with 0.02% (v/v) Tween-20, then resuspended to a 50% slurry with 50 mM HEPES pH 7.4 and 10 µl added to the activity assays. For in solution kinase assays, α1β1γ1 AMPK was eluted from glutathione-Sepharose by incubating with purification buffer supplemented with 40 mM reduced glutathione (Sigma–Aldrich).
(§2) AMPK activity was determined by phosphorylation of the SAMS peptide (Purar Chemicals, sequence: NH2-HMRSAMSGLHLVKRR-COOH) in a 25 µl reaction volume containing 100 µM SAMS peptide, 5 mM MgCl2, 200 µM ATP, [γ-^32P]-ATP (PerkinElmer) and assay buffer (50 mM HEPES pH 7.4, 1 mM DTT and 0.02% (v/v) Tween-20) and purified AMPK. Phosphotransferase activity was conducted at 30°C for 10 min and reactions were quenched by spotting 15 µl onto phosphocellulose ion-exchange chromatography paper (made in-house), followed by repeated washes in 1% H3PO4 (Merck Millipore). Ultima Gold liquid scintillation fluid (5 ml; PerkinElmer) was added to vials containing dried phosphocellulose papers, and the level of ^32P-transfer to the SAMS peptide was determined using a Tri-Carb 2900TR liquid scintillation counter (PerkinElmer).

[1] = biological target: T2, GST-α1β1γ1 AMPK in solution (Homo sapiens, UniProt Q13131+Q9Y478); test: In solution SAMS kinase assay, HEK293T/17-expressed GST-α1β1γ1 eluted from glutathione Sepharose; conditions: for EC50: 0-30 µM activator
T2 construct: triply transfected with full-length AMPK α1 or α2 (NH2-terminal GST fusion, pDEST27 vector); full-length AMPK α1 or α2 (NH2-terminal GST fusion, pDEST27 vector), β1 or β2 (COOH-terminal FLAG fusion, pcDNA3.1 vector); FLAG (C); made in house; host or cells: HEK293T/17 cells, transient triple transfection
Procedure: as §1, §2
⍺1β1γ1 – in solution E. coli-expressed ⍺2β1γ1 […]
log [compound] (M) log [compound] (M)
Compound EC (nM) Max. fold Compound EC50 (nM) Max. fold
Supplementary Figure 3. In solution activation kinetics for AMPK complexes. Related to Figure 2. Activities measured in the presence of 0-30 µM AMPK activators. […]

human GST-AMPK α2β1γ1 = biological target: T3, human GST-AMPK α2β1γ1 (Homo sapiens, UniProt P54646+Q9Y478); test: Radiolabel SAMS kinase assay, GST-AMPK from HEK293T/17 cells immobilised on glutathione-Sepharose; conditions: for Max. fold activation: immobilised α2β1γ1; for EC50: immobilised α2β1γ1, 0–30 µM activator
T3 construct: triply transfected with full-length AMPK α1 or α2 (NH2-terminal GST fusion, pDEST27 vector); full-length AMPK α1 or α2 (NH2-terminal GST fusion, pDEST27 vector), β1 or β2 (COOH-terminal FLAG fusion, pcDNA3.1 vector); FLAG (C); made in house; host or cells: HEK293T/17 cells, transient triple transfection

human GST-AMPK α2β2γ1 = biological target: T4, human GST-AMPK α2β2γ1 (Homo sapiens, UniProt O43741+P54646); test: as above; conditions: for Max. fold activation: immobilised α2β2γ1; for EC50: immobilised α2β2γ1, 0–30 µM activator
T4 construct: triply transfected with full-length AMPK α1 or α2 (NH2-terminal GST fusion, pDEST27 vector); full-length AMPK α1 or α2 (NH2-terminal GST fusion, pDEST27 vector), β1 or β2 (COOH-terminal FLAG fusion, pcDNA3.1 vector); FLAG (C); made in house; host or cells: HEK293T/17 cells, transient triple transfection
T4 sequence (P54646 whole entry, the tested form may be a part): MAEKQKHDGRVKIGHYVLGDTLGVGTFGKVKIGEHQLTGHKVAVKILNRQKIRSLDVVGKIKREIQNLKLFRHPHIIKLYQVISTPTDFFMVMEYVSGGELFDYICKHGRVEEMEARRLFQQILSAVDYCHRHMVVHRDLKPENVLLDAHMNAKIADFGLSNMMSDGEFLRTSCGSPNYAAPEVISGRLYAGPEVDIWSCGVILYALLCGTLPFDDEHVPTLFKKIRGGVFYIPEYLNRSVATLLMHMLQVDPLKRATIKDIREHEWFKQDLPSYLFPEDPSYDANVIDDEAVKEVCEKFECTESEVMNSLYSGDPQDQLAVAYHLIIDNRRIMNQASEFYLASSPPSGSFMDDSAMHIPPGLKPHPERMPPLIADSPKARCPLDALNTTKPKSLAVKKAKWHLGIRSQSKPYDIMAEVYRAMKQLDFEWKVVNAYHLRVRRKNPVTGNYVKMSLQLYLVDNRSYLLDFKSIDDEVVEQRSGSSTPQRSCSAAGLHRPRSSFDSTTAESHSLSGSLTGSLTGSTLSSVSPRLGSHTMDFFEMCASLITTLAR
T4 sequence (O43741 whole entry, the tested form may be a part): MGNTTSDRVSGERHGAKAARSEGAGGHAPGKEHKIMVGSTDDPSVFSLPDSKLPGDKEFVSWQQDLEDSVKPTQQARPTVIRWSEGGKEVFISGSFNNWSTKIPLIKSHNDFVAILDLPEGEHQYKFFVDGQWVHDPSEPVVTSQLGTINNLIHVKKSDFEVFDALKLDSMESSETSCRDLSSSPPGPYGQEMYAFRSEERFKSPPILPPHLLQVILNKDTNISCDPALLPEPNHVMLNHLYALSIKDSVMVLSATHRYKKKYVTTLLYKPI
T4 sequence (P54619 whole entry partner, the tested form may be a part): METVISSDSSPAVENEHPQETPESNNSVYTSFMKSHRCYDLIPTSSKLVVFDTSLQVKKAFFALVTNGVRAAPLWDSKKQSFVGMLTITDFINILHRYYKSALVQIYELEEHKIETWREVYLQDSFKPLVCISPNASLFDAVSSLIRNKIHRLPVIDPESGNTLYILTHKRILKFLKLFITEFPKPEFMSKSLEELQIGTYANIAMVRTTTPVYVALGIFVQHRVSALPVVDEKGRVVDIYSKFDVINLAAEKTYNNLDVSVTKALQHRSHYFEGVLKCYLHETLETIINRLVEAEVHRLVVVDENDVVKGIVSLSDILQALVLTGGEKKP

T3 sequence (P54646 whole entry, the tested form may be a part): as the sequence (P54646 whole entry, the tested form may be a part) above
T3 sequence (Q9Y478 whole entry, the tested form may be a part): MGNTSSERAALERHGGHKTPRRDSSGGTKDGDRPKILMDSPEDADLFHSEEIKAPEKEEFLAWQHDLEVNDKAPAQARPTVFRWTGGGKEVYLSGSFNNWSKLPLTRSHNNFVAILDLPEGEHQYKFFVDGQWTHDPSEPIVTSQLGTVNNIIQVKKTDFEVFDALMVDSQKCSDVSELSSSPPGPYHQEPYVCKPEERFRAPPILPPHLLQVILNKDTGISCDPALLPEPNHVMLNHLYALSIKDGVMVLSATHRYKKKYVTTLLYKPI
T3 sequence (P54619 whole entry partner, the tested form may be a part): as the sequence (P54619 whole entry partner, the tested form may be a part) above
T1 sequence (Q13131 whole entry, the tested form may be a part): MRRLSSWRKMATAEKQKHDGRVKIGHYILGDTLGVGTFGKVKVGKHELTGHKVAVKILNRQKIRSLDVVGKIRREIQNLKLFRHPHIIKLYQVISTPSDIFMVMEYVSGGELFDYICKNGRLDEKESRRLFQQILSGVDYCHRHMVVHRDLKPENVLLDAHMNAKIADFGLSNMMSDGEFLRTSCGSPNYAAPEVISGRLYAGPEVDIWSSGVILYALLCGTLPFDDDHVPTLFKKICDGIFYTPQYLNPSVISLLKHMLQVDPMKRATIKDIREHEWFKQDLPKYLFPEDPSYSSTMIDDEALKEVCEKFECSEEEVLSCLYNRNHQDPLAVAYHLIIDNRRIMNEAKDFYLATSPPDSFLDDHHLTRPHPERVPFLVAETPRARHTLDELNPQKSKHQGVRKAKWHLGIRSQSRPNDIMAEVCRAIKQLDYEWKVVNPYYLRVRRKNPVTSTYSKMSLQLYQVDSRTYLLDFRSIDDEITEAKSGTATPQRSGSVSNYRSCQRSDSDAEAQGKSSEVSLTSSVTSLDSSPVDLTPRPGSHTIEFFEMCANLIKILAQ
T1 sequence (Q9Y478 whole entry, the tested form may be a part): as the sequence (Q9Y478 whole entry, the tested form may be a part) above
T1 sequence (P54619 whole entry partner, the tested form may be a part): as the sequence (P54619 whole entry partner, the tested form may be a part) above
T2 sequence (Q13131 whole entry, the tested form may be a part): as the sequence (Q13131 whole entry, the tested form may be a part) above
T2 sequence (Q9Y478 whole entry, the tested form may be a part): as the sequence (Q9Y478 whole entry, the tested form may be a part) above
T2 sequence (P54619 whole entry partner, the tested form may be a part): as the sequence (P54619 whole entry partner, the tested form may be a part) above

Max. fold activation (human GST-AMPK α1β1γ1)	EC50 (human GST-AMPK α1β1γ1)	Max. fold activation [1]	EC50 [1]	Max. fold activation (human GST-AMPK α2β1γ1)	EC50 (human GST-AMPK α2β1γ1)	Max. fold activation (human GST-AMPK α2β2γ1)	EC50 (human GST-AMPK α2β2γ1)	fold AMPK activation relative to vehicle (human GST-AMPK α1β1γ1; 1 µM compound)	Compound
2.2 fold	1210 nM	1.8 fold	1740 nM	7.8 fold	3250 nM	5.8 fold	5600 nM	–	O[C@@H]1CO[C@H]2[C@@H]1OC[C@H]2Oc1nc2nc(-c3ccc(-c4ccccc4)cc3)c(Cl)cc2[nH]1 [MK-8722, reference compound]
3.1 fold	140 nM	2.6 fold	25.2 nM	7.5 fold	553 nM	4.0 fold	473 nM	> 2.2 fold	CC(=O)NC1CC=C(c2ccc(-c3nc4nc(Oc5ccc(C)c(C(=O)O)c5)[nH]c4cc3Cl)cc2)CC1 (centres unmarked) [MSG011, 5-((5-(4′-Acetamido-2′,3′,4′,5′-tetrahydro-[1,1′-biphenyl]-4-yl)-6-chloro-1H-imidazo[4,5-b]pyridin-2-yl)oxy)-2-methylbenzoic acid]
